In patent USRE47302E1 (ONYX THERAPEUTICS INC., priority 2013, dated 2019):
In brackets after ≈: the same amount, converted by molar mass.

Assay: Solubility pH 7
Conditions: pH 7
For `COc1ccc(C[C@H](NC(=O)[C@H](C)NC(=O)CN2CCOCC2)C(=O)N[C@@H](C[C@H]2CCOC2)C(=O)[C@@]2(C)CO2)cc1` [Compound C-1025, (S)-3-(4-methoxyphenyl)-N-((S)-1-((R)-2-methyloxiran-2-yl)-1-oxo-3-((S)-tetrahydrofuran-3-yl)propan-2-yl)-2-((S)-2-(2-morpholinoacetamido)propanamido) propanamide], the “Solubility pH 7 (μg/mL)” value was greater than 10 μg/mL.

Same assay, conditions: pH 7, aqueous buffer
`COc1ccc(C[C@H](NC(=O)[C@H](C)NC(=O)CN2CCOCC2)C(=O)N[C@@H](C[C@H]2CC[C@H](O)CC2)C(=O)[C@@]2(C)CO2)cc1` [Compound C-1002, (S)-N-((S)-3-((1r,4S)-4-hydroxycyclohexyl)-1-((R)-2-methyloxiran-2-yl)-1-oxopropan-2-yl)-3-(4-methoxyphenyl)-2-((S)-2-(2-morpholinoacetamido)propanamido)propanamide] showed a solubility of 3190 µg/mL (≈ 5.29 mM).
Work on `COc1ccc(C[C@H](NC(=O)[C@H](C)NC(=O)CN2CCOCC2)C(=O)N[C@@H](C[C@@H]2CCCO2)C(=O)[C@@]2(C)CO2)cc1` [Compound C-1016, (S)-3-(4-methoxyphenyl)-N-((S)-1-((R)-2-methyloxhan-2-yl)-1-oxo-3-((S)-tetrahydrofuran-2-yl)propan-2-yl)-2-((S)-2-(2-morpholinoacetamido)propanamido)propanamide] yielded a solubility of 6890 µg/mL (≈ 12 mM).
For `COc1ccc(C[C@H](NC(=O)[C@H](C)NC(=O)CN2CCOCC2)C(=O)N[C@@H](CC2CNC(=O)C2)C(=O)[C@@]2(C)CO2)cc1` (stereo partly drawn) [Compound C-1035, (2S)-3-(4-methoxyphenyl)-N-((2S)-1-((R)-2-methyloxiran-2-yl)-1-oxo-3-(5-oxopyrrolidin-3-yl)propan-2-yl)-2-((S)-2-(2-morpholinoacetamido)propanamido)propanamide], the solubility was greater than 10 µg/mL.
`COc1ccc(C[C@H](NC(=O)[C@H](C)NC(=O)CN2CCOCC2)C(=O)N[C@@H](C[C@H]2CCN(C)C2=O)C(=O)[C@@]2(C)CO2)cc1` [Compound C-1040, (2S)-3-(4-methoxyphenyl)-N-((2S)-3-(1-methyl-2-oxopyrrolidin-3-yl)-1-((R)-2-methyloxiran-2-yl)-1-oxopropan-2-yl)-2-((S)-2-(2-morpholinoacetamido)propanamido) propanamide] showed a solubility of 12300 µg/mL (≈ 20.5 mM).
In the case of `COc1ccc(C[C@H](NC(=O)[C@H](C)NC(=O)CN2CCOCC2)C(=O)N[C@@H](CN2CCCC2=O)C(=O)[C@@]2(C)CO2)cc1` [Compound C-1042, (S)-3-(4-methoxyphenyl)-N-((S)-1-((R)-2-methyloxiran-2-yl)-1-oxo-3-(2-oxopyrrolidin-1-yl)propan-2-yl)-2-((S)-2-(2-morpholinoacetamido)propanamido)propanamide], the solubility is reported as 8780 µg/mL (≈ 14.9 mM).
`COc1ccc(C[C@H](NC(=O)[C@@H](C)NC(=O)[C@H]2CNC(=O)C2)C(=O)N[C@@H](CC2CCCC2)C(=O)[C@@]2(C)CO2)cc1` [Compound C-1067, (R)-N-((R)-1-(((S)-1-(((S)-3-cyclopentyl-1-((R)-2-methyloxiran-2-yl)-1-oxopropan-2-yl)amino)-3-(4-methoxyphenyl)-1-oxopropan-2-yl)amino)-1-oxopropan-2-yl)-5-oxopyrrolidine-3-carboxamide] gave a solubility of 4590 µg/mL (≈ 8.25 mM).
With `COc1ccc(C[C@H](NC(=O)[C@@H](C)NC(=O)[C@@H]2CNC(=O)C2)C(=O)N[C@@H](CC2CCCC2)C(=O)[C@@]2(C)CO2)cc1` [Compound C-1068, (S)-N-((R)-1-(((S)-1-(((S)-3-cyclopentyl-1-((R)-2-methyloxiran-2-yl)-1-oxopropan-2-yl)amino)-3-(4-methoxyphenyl)-1-oxopropan-2-yl)amino)-1-oxopropan-2-yl)-5-oxopyrrolidine-3-carboxamide] the solubility was 4410 µg/mL (≈ 7.92 mM).
In the case of `C[C@H](NC(=O)CN1CCOCC1)C(=O)N[C@@H](Cc1ccc2[nH]cnc2c1)C(=O)N[C@@H](CC1CCCC1)C(=O)[C@@]1(C)CO1` [Compound C-1069, (S)-3-(1H-benzo[d]imidazol-5-yl)-N-((S)-3-cyclopentyl-1-((R)-2-methyloxiran-2-yl)-1-oxopropan-2-yl)-2-((S)-2-(2-morpholinoacetamido)propanamido)propanamide], the solubility is reported as 3540 µg/mL (≈ 6.08 mM).
With `COc1ccc(C[C@H](NC(=O)[C@@H](C)NC(=O)[C@H]2CC[C@H](O)CC2)C(=O)N[C@@H](CC2CC(F)(F)C2)C(=O)[C@@]2(C)CO2)cc1` [Compound C-1073, (1r,4R)-N-((R)-1-(((S)-1-(((S)-3-(3,3-difluorocyclobutyl)-1-((R)-2-methyloxiran-2-yl)-1-oxopropan-2-yl)amino)-3-(4-methoxyphenyl)-1-oxopropan-2-yl)amino)-1-oxopropan-2-yl)-4-hydroxycyclohexanecarboxamide] the solubility was 2180 µg/mL (≈ 3.67 mM).
With `COc1ccc(C[C@H](NC(=O)[C@@H](C)NC(=O)[C@@H]2CC[C@@H](O)C2)C(=O)N[C@@H](CC2CCCC2)C(=O)[C@@]2(C)CO2)cc1` [Compound C-1077, (1R,3R)-N-((R)-1-(((S)-1-(((S)-3-cyclopentyl-1-((R)-2-methyloxiran-2-yl)-1-oxopropan-2-yl)amino)-3-(4-methoxyphenyl)-1-oxopropan-2-yl)amino)-1-oxopropan-2-yl)-3-hydroxycyclopentanecarboxamide] the solubility was 1540 µg/mL (≈ 2.75 mM).
For `COc1ccc(C[C@H](NC(=O)[C@@H](C)NC(=O)[C@@H]2CC[C@H](O)C2)C(=O)N[C@@H](CC2CCCC2)C(=O)[C@@]2(C)CO2)cc1` [Compound C-1078, (1R,3S)-N-((R)-1-(((S)-1-(((S)-3-cyclopentyl-1-((R)-2-methyloxiran-2-yl)-1-oxopropan-2-yl)amino)-3-(4-methoxyphenyl)-1-oxopropan-2-yl)amino)-1-oxopropan-2-yl)-3-hydroxycyclopentanecarboxamide], the solubility was 873 µg/mL (≈ 1.57 mM).
Work on `C[C@H](NC(=O)CN1CCOCC1)C(=O)N[C@@H](Cc1ccc2c(c1)CC(=O)N2)C(=O)N[C@@H](CC1CCCC1)C(=O)[C@@]1(C)CO1` [Compound C-1081, (S)-N-((S)-3-cyclopentyl-1-((R)-2-methyloxiran-2-yl)-1-oxopropan-2-yl)-2-((S)-2-(2-morpholinoacetamido)propanamido)-3-(2-oxoindolin-5-yl)propanamide] yielded a solubility of 2760 µg/mL (≈ 4.62 mM).
Work on `C[C@H](NC(=O)CN1CCOCC1)C(=O)N[C@@H](Cc1ccc(OC(F)(F)F)cc1)C(=O)N[C@@H](CC1CCCC1)C(=O)[C@@]1(C)CO1` [Compound C-1084, (S)-N-((S)-3-cyclopentyl-1-((R)-2-methyloxiran-2-yl)-1-oxopropan-2-yl)-2-((S)-2-(2-morpholinoacetamido)propanamido)-3-(4-(trifluoromethoxy)phenyl)propanamide] yielded a solubility of 125 µg/mL (≈ 0.2 mM).
`C[C@H](NC(=O)CN1CCOCC1)C(=O)N[C@@H](Cc1ccc2c(c1)CCC(=O)N2)C(=O)N[C@@H](CC1CCCC1)C(=O)[C@@]1(C)CO1` [Compound C-1086, (S)-N-((S)-3-cyclopentyl-1-((R)-2-methyloxiran-2-yl)-1-oxopropan-2-yl)-2-((S)-2-(2-morpholinoacetamido)propanamido)-3-(2-oxo-1,2,3,4-tetrahydroquinolin-6-yl)propanamide] showed a solubility of 3860 µg/mL (≈ 6.32 mM).
Molecule `C[C@H](NC(=O)CN1CCOCC1)C(=O)N[C@@H](Cc1ccc2c(c1)CCNS2(=O)=O)C(=O)N[C@@H](CC1CCCC1)C(=O)[C@@]1(C)CO1` [Compound C-1091, (S)-N-((S)-3-cyclopentyl-1-((R)-2-methyloxiran-2-yl)-1-oxopropan-2-yl)-3-(1,1-dioxido-3,4-dihydro-2H-benzo[e][1,2]thiazin-6-yl)-2-((S)-2-(2-morpholinoacetamido)propanamido)propanamide] has a solubility of 230 µg/mL (≈ 0.356 mM).
`COc1ccc(C[C@H](NC(=O)[C@H](C)NC(=O)CN2CCOCC2)C(=O)N[C@@H](CC2CC(F)(F)C2)C(=O)[C@@]2(C)CO2)cc1` [Compound C-1093, (S)-N-((S)-3-(3,3-difluorocyclobutyl)-1-((R)-2-methyloxiran-2-yl)-1-oxopropan-2-yl)-3-(4-methoxyphenyl)-2-((S)-2-(2-morpholinoacetamido)propanamido)propanamide] gave a solubility of 6110 µg/mL (≈ 10.3 mM).
For `COc1ccc(C[C@H](NC(=O)[C@H](C)NC(=O)CN2CCOCC2)C(=O)N[C@@H](C[C@H]2C[C@@H]3C[C@@H]3C2)C(=O)[C@@]2(C)CO2)cc1` [Compound C-1094, (S)-N-((S)-3-((1R,3s,5S)-bicyclo[3.1.0]hexan-3-yl)-1-((R)-2-methyloxiran-2-yl)-1-oxopropan-2-yl)-3-(4-methoxyphenyl)-2-((S)-2-(2-morholinoacetamido)propanamido)propanamide], the solubility was 1670 µg/mL (≈ 2.86 mM).
Work on `COc1ccc(C[C@H](NC(=O)[C@@H](C)NC(=O)C2CCN(C)CC2)C(=O)N[C@@H](CC2=CCCC2)C(=O)[C@@]2(C)CO2)cc1` [Compound C-1098, N-((R)-1-(((S)-1-(((S)-3-(cyclopent-1-en-1-yl)-1-((R)-2-methyloxiran-2-yl)-1-oxopropan-2-yl)amino)-3-(4-methoxyphenyl)-1-oxopropan-2-yl)amino)-1-oxopropan-2-yl)-1-methylpiperidine-4-carboxamide] yielded a solubility of 7830 µg/mL (≈ 13.8 mM).
In the case of `COc1ccc(C[C@H](NC(=O)[C@@H](C)NC(=O)[C@@H]2CCCN(C)C2)C(=O)N[C@@H](CC2=CCCC2)C(=O)[C@@]2(C)CO2)cc1` [Compound C-1099, (R)-N-((R)-1-(((S)-1-(((S)-3-(cyclopent-1-en-1-yl)-1-((R)-2-methyloxiran-2-yl)-1-oxopropan-2-yl)amino)-3-(4-methoxyphenyl)-1-oxopropan-2-yl)amino)-1-oxopropan-2-yl)-1-methylpiperidine-3-carboxamide], the solubility is reported as 7310 µg/mL (≈ 12.9 mM).
`COc1ccc(C[C@H](NC(=O)[C@H](C)NC(=O)CN2CCOCC2)C(=O)N[C@@H](CC2=CCCCC2)C(=O)[C@@]2(C)CO2)cc1O` [Compound C-1100] showed a solubility of 4570 µg/mL (≈ 7.61 mM).
In the case of `C[C@H](NC(=O)CN1CCOCC1)C(=O)NC(Cc1ccc2c(c1)COC(=O)N2)C(=O)N[C@@H](CC1CCCC1)C(=O)[C@@]1(C)CO1` (stereo partly drawn) [Compound C-1101, N-((S)-3-cyclopentyl-1-((R)-2-methyloxiran-2-yl)-1-oxopropan-2-yl)-2-((S)-2-(2-morpholinoacetamido)propanamido)-3-(2-oxo-2,4-dihydro-1H-benzo[d][1,3]oxazin-6-yl)propanamide], the solubility is reported as 4090 µg/mL (≈ 6.67 mM).
